Data on one molecule can be found in article PMC11984407, “A natural small molecule isoginkgetin alleviates hypercholesterolemia and atherosclerosis by targeting ACLY” (Theranostics, 2025).

In one assay the target is T1, hERG channel (Homo sapiens, UniProt Q12809).
T1 construct: expressed in transfected cells
The assay can be described thus: Manual whole-cell patch clamp on HEK cells stably expressing hERG. Format: cell-based. As for the experimental part: The whole-cell patch clamp technique was employed for the experiments. Previously published works detail the methodologies and solutions used for capturing various currents in cardiomyocytes and in HEK cell lines that stably express different K^+ channels. Specifically, the standard bath solution with 5 mM K^+ consisted of 135 mM NaCl, 5 mM KCl, 2 mM CaCl2, 1 mM MgCl2, 10 mM glucose, and 10 mM HEPES, adjusted to pH 7.4 using NaOH. Meanwhile, the bath solution containing 135 mM K^+ was made of 135 mM KCl, 2 mM CaCl2, 1 mM MgCl2, 10 mM glucose, and 10 mM HEPES, with the pH set to 7.4 by adding KOH. All experiments using the patch clamp method were conducted at a controlled room temperature of 22 ± 1 °C.
On the technique in general: In patch-clamp work, channel activity is measured electrically.

Assay [1] in a line: Copper-induced LDL oxidation, agarose gel electrophoresis. Conditions: varying concentrations, copper 5 μM. As for the experimental part:
Prior to oxidation, EDTA was removed from LDL solutions (YB-001; Yiyuan Biotechnologies, Guangzhou, China). Subsequently, LDL solutions at a concentration of 0.2 mg/mL were incubated with varying concentrations of ISOGK in PBS for one h at 37 °C. The oxidation process was initiated by combining both native LDL and LDL pretreated with ISOGK with copper sulfate (99.0% purity; Jinshanting New Chemical Reagent Factory, Shanghai, China) to achieve a final copper concentration of 5 μM in PBS. This mixture was then incubated at 37 °C. Agarose gel electrophoresis was performed utilizing 0.5% agarose gels prepared in a sodium barbital buffer, following the stipulated electrophoretic methodology. The procedure was carried out in a 0.075 M sodium barbital buffer at a constant voltage of 55 V for a duration of one h. The relative electrophoretic mobility (REM) was determined by calculating the ratio of the migration distance of oxidized LDL to that of native LDL.

Another assay deals with Srebf1c and Fasn mRNA. In words: RT-qPCR of lipid synthesis genes after ACLY knockdown in AML12 and Huh7 cells. Format: cell-based. Conditions: 5 µM, 50 µM PA, 12 h. The procedure: Total RNA was extracted from cultured cells or animal tissue using RNeasy kits (RN001-50Rxns, YiShan, Shanghai, China). Subsequently, cDNA was generated using a Takara Reverse Transcription Kit (RR037B, Takara, Kyoto, Japan). Subsequently, quantitative real-time polymerase chain reaction (RT-qPCR) assays were conducted using ChamQ SYBR qPCR Master Mix (Q311-02, Vazyme, Nanjing, China), following the reverse transcription. The Roche LC96 real-time PCR detection system was employed for the detection of results, with glyceraldehyde-3-phosphate dehydrogenase (GAPDH) serving as the loading control for the quantification of mRNA levels. The fold change relative to the respective controls was determined using the 2^(^-ΔΔCt) method. Primers were designed using the PrimerQuest software and subsequently synthesised by Sangon Biotech (Shanghai, China).
On the technique in general: In qPCR the cycle at which signal appears reflects the starting amount.

A further assay has as its target T2, ACLY (Mus musculus, UniProt Q91V92).
T2 sequence (Q91V92 1-1091): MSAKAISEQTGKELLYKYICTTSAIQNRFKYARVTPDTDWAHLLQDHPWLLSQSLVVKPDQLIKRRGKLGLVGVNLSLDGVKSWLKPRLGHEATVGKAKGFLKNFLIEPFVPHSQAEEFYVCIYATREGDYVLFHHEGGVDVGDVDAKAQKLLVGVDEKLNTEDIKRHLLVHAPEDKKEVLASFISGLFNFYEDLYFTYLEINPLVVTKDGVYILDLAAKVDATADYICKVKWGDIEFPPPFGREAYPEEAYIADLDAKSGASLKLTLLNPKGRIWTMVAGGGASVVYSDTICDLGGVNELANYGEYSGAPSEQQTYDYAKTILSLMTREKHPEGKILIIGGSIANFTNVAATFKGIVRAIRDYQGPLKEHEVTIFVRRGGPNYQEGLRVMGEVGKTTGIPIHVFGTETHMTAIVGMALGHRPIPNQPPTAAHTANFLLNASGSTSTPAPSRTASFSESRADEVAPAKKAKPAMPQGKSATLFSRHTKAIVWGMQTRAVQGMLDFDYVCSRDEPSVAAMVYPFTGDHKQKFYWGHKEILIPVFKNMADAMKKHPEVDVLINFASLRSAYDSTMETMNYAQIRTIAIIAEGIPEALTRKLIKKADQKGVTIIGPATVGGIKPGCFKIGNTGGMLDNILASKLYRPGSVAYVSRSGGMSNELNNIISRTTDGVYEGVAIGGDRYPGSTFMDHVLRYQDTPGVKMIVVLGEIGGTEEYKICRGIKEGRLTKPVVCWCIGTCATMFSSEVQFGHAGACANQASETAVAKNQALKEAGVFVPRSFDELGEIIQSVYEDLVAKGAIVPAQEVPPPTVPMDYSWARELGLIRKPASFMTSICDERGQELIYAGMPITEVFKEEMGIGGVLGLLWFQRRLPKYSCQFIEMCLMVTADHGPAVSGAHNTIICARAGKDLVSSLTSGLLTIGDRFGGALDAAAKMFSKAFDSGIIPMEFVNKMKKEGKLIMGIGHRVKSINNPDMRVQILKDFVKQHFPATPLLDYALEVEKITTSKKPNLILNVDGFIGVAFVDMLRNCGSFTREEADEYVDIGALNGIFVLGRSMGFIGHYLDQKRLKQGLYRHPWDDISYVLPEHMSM
The assay can be described thus: Cellular thermal shift assay in AML12 cell lysates. Format: binding. Also on record: The AML12 cell lysates were separated into two portions; endogenous in cells; host or cells: AML12. Conditions: 5 µM, 50 to 90 °C. The procedure: The AML12 cell lysates were separated into two portions; one served as a control, while the other was exposed to 5 µM ISOGK for 1 h at room temperature. Subsequently, the lysates were individually heated at the specified temperatures (50 to 90 °C) for 5 min and allowed to cool at room temperature. Following this, the lysates underwent centrifugation at 12,000 rpm for 10 min at 4 °C, after which the supernatants were analyzed through Western blot.

T1 sequence (Q12809 whole entry): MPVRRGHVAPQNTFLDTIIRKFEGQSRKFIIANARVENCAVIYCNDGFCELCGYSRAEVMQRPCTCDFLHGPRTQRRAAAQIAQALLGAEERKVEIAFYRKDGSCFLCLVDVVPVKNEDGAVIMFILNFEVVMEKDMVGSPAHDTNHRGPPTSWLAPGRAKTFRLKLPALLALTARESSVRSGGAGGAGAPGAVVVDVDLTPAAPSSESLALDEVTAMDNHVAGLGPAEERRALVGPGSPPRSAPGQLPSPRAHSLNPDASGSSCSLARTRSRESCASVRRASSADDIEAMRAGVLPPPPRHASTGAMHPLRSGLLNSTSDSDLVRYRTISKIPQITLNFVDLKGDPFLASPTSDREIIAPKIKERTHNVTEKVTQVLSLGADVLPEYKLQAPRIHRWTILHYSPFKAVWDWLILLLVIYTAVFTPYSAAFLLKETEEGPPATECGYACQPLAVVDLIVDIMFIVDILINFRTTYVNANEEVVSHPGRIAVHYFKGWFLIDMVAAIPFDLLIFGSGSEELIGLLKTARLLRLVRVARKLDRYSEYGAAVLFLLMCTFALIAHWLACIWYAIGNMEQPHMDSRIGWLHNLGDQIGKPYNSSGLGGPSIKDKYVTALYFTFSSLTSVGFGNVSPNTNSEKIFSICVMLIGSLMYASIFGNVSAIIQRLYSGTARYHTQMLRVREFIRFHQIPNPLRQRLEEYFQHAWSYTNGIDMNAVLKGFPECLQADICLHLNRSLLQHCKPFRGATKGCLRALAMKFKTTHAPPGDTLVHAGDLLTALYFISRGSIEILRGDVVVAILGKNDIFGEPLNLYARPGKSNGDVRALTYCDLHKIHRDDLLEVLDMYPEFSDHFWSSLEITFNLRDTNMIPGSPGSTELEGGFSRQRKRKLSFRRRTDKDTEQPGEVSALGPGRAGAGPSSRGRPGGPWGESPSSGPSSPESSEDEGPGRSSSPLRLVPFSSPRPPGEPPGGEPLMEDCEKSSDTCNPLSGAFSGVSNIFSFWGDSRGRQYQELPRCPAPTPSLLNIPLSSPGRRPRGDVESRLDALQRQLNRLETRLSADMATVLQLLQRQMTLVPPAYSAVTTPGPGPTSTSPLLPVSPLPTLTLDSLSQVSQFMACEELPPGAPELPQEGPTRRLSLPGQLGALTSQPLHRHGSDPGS

As a reminder, the IC50 is the concentration at which inhibition is half-maximal. The low end stands for greater potency in that assay, the high end for weaker potency in that assay. In turn, `COc1ccc(-c2cc(=O)c3c(O)cc(O)c(-c4cc(-c5cc(=O)c6c(O)cc(O)cc6o5)ccc4OC)c3o2)cc1` [ISOGK, Isoginkgetin] displayed an IC50 on hERG channel greater than 30 µM. For the same molecule, the “antioxidant activity against copper-induced LDL oxidation (REM)” value in assay [1] is reported as “no antioxidant activity”. The “mRNA expression of Srebf1c and Fasn following ACLY knockdown” value in the assay with Srebf1c and Fasn mRNA is reported as “did not demonstrate a further reduction”. The “thermal stabilization of ACLY” value at ACLY is “stabilized the ACLY protein”.
